Key:
[1] = tested on: metritis-causing organisms; experiment: In vitro killing of bacteria in uterine discharge from a cow with confirmed metritis; format: cell-based
Procedure: In vitro testing: One-ml aliquots of uterine discharge from a cow with confirmed metritis were collected and diluted with 1 ml of water. The aliquots were incubated for 30 minutes at 37° C. either in the presence of 7.0% carbamide peroxide (test) or in the absence of carbamide peroxide (control). Bacteria from each treatment were washed and centrifuged, reconstituted in media, and plated on suitable culture media plates. The plates were incubated for three days. […] A similar experiment was conducted using urea in place of carbamide peroxide. The concentration of urea used was 11.3%. This is the equivalent amount of urea found in 4 urea boluses per 16 ounces of water, which is recommended for in vivo treatment using commercially available urea boluses.

[2] = tested on: postpartum cows with retained placenta; experiment: Clinical trials of intrauterine bolus in cows having retained placenta; format: in vivo; conditions: single bolus containing 3.5 grams carbamide peroxide inserted in the uterus
Procedure: Efficacy of carbamide peroxide administration in treating retained placenta was tested in clinical trials with cows having retained placenta. A single bolus containing 3.5 grams carbamide peroxide was inserted in the uterus of postpartum cows with retained placenta.

[3] = tested on: cows diagnosed with metritis; experiment: Clinical trials of intrauterine bolus in cows diagnosed with metritis; format: in vivo; conditions: single bolus containing 3.5 grams carbamide peroxide inserted in the uterus
Procedure: Efficacy of carbamide peroxide administration for treating metritis was tested in clinical trials with cows diagnosed with metritis. A single bolus containing 3.5 grams carbamide peroxide was inserted in the uterus of cows showing metritis symptoms such as foul uterine discharge. […] As no antibiotics were required in these cases, no milk had to be discarded. Because no milk was discarded, full financial benefit to the farmer was received for selling more milk than would have occurred if milk had to be discarded due to the presence of antibiotics. […] This indicates the carbamide peroxide administration is safe for use for the long term health of the cow and helps reduce subsequent reproduction failures.

[4] = tested on: cow diagnosed with severe metritis and vaginitis; experiment: Uterine flush (wash format) in a cow with severe metritis and vaginitis; format: in vivo; conditions: two boluses comprising 3.5 g carbamide peroxide dissolved in 1 quart of water, uterus flushed; cow 5 days after calving
Procedure: Efficacy of carbamide peroxide administration in a wash format was tested with a cow diagnosed with severe metritis and vaginitis. A cow that had calved 5 days previously presented a foul smelling uterine discharge. Upon clinical examination, it was discovered that remnants of the placenta were still in the uterus and that the animal was off feed. Antibiotics were not preferred for treatment, as sale of milk from the cow was very important. (Antibiotic residue in milk is not permitted if sale of milk is to occur.) Two boluses comprising 3.5 g carbamide peroxide were dissolved in 1 quart of water, and the uterus of the cow was flushed out with the flush. Within 24-48 hours, the uterine discharge had cleared, the cow was on feed again, and placental remnants were gone. The animal was able to be milked easier than prior to treatment, and the cow was returned to normal service in good health. As no antibiotics were used, the milk was not required to be discarded, and the owner was able to make financial gain from the sale of the milk.

SMILES | bacteria colonies on culture plates after treatment ([1]; 7.0% carbamide peroxide, 30 minutes at 37° C., plates incubated three days, control plates had hundreds of colonies) | foul uterine discharge after treatment [2] | shedding of retained placenta [2] | feed intake during the treatment [3] | need for follow-up with antibiotics [3] | subsequent conception and calving (long-term safety) [3] | uterine discharge (metritis symptom) [3] | time until uterine discharge had cleared, cow on feed again, placental remnants gone [4] | bacteria colonies on culture plates after treatment ([1]; 11.3% urea in place of carbamide peroxide, similar experiment)
NC(N)=O.OO [carbamide peroxide] | no colonies were found | no foul uterine discharge | The next day, the retained placenta was shed naturally | did not go off feed | No follow-up with antibiotics were required | subsequently conceived safely and had healthy calves | improved and reduced quickly | 24 to 48 h | –
NC(N)=O [urea, reference compound] | – | – | – | – | – | – | – | – | several bacterial colonies still being present

— patent US8865770B2, “Carbamide peroxide treatments for the reproductive tract” (Vets Plus, Inc., priority 2011, dated 2014)
